# Test results taken from patent US20240216352A1 (priority 2022, published 2024).
# Columns and labels:
# healthy participants = assay: Phase 1 Part A single ascending dose (SAD) and FE/pH cohort: safety, blood pressure; format: in vivo, human; settings: for Mean SBP: in mmHg (unit assumed); for Maximum of mean (±SD) reduction in DBP from baseline / Maximum of mean (±SD) reduction in SBP from baseline / Time of maximum mean DBP reduction / Time of maximum mean SBP reduction: within 12 h post dose
# Protocol: The study was performed in 3 parts in 112 healthy male and female participants, including 24 Japanese participants. Female participants were to be not of childbearing potential. The present study was designed to evaluate the safety and tolerability, PK, and exploratory PD of an oral suspension of Compound A. Parts A and B (Cohort B1 only) enrolled healthy participants and was conducted at a site in The Netherlands and Part B (Cohort B2 to B5) enrolled healthy non-Japanese participants and was conducted at a site in the United Kingdom (UK). Part C enrolled healthy Japanese participants and was conducted at the same site in the UK.
# Part A was an SAD study in a planned number of 6 sequential dose escalation cohorts (3, 10, 30, 100, 150, or 250 mg) of 8 healthy participants (6 active+2 placebo) each, under fasted conditions. Eligible participants in Part A (excluding those in Cohort A7 [food effect (FE)/pH cohort]) received a single administration of study drug (Compound A or placebo) under fasted conditions. In Cohort A1 to Cohort A6, sentinel dosing was employed (1 active+1 placebo, followed after 48 hours by the remaining participants of the cohort [5 active+1 placebo]). […] In addition to the 6 ascending dose cohorts, a cohort of 6 healthy participants (Cohort A7; 6 active, 100 mg Compound A) was included to assess the effect of food and pH on the bioavailability of Compound A in a 3-period, open-label, fixed-sequence, crossover design (FE/pH cohort).
# Physical examinations, vital sign measurements (including orthostasis testing in Cohort A6, Cohort B3 to B5, and C1 to C3 at selected time points), 12-lead electrocardiogram (ECG), and clinical laboratory evaluations were performed at selected times throughout the study. In addition, Holter monitoring was performed for the first 24 hours post dose on Day 1 in Part A (not in FE/pH cohort), and also for the first 24 hours post dose on Day 1 and Day 14 in Parts B and C. Participants were closely monitored for adverse events (AEs). Blood samples were collected for up to 14 days (follow-up visit) after (last) study drug administration for PK analysis. In addition, blood and urine were collected for exploratory biomarker assessments and for biobanking of samples for potential analyses. Urine was collected for potential PK analysis for up to 96 hours after a single dose of Compound A or placebo was administered in the SAD part, and for up to 24 hours after the first (morning) dose of study drug on Day 1 and for up to 24 hours after the last (morning) dose of study drug on Day 14 in the MAD parts.
# LPA1 = LPA1 (Homo sapiens, UniProt Q92633); assay: LPA1 antagonism (Kb) in CHO cells overexpressing human LPA1; format: cell-based; set-up: expressed in transfected cells; host or cells: CHO cells
# LPA1, sequence (Q92633 whole entry): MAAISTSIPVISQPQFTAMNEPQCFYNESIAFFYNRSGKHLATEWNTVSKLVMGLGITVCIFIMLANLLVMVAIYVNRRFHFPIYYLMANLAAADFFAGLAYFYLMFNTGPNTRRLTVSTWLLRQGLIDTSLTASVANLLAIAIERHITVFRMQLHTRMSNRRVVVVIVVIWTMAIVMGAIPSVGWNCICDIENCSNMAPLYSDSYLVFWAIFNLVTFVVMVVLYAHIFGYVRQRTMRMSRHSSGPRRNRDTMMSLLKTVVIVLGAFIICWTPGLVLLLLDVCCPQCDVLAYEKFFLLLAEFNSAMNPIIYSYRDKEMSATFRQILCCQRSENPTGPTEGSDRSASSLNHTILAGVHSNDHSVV
# From the text: Compound A is currently in clinical development as a therapy for IPF and PF-ILD.
# [1] = 100 mg Fasted + Famotidine, D 1 2 h
# [2] = 100 mg Fasted + Famotidine, D 1 4 h
# [3] = 100 mg Fasted + Famotidine, D 1 8 h
# [4] = 100 mg Fasted + Famotidine, D 2 24 h
# [5] = 100 mg fasted + famotidine (A7)
compound,measurement,setting,value
"CCCN(C)C(=O)OCc1c(-c2ccc(O[C@H]3CCC[C@H](C(=O)O)C3)c(C)n2)nnn1C [Compound A, (1S,3S)-3-((2-methyl-6-(1-methyl-5-(((methyl(propyl)carbamoyl)-oxy)methyl)-1H-1,2,3-triazol-4-yl)pyridin-3-yl)oxy)cyclohexane-1-carboxylic acid]",Mean DBP,healthy participants; [1],67.2 mmHg
same,Mean SBP,healthy participants; [1],111.3
same,Mean DBP,healthy participants; [2],65.3 mmHg
same,Mean SBP,healthy participants; [2],106.5
same,Mean DBP,healthy participants; [3],63.2 mmHg
same,Mean SBP,healthy participants; [3],105.0
same,Mean DBP,healthy participants; [4],71.7 mmHg
same,Mean SBP,healthy participants; [4],118.7
same,Mean DBP,"healthy participants; 100 mg Fasted, D 1 2 h",67.2 mmHg
same,Mean SBP,"healthy participants; 100 mg Fasted, D 1 2 h",107.5
same,Mean DBP,"healthy participants; 100 mg Fasted, D 1 4 h",64.2 mmHg
same,Mean SBP,"healthy participants; 100 mg Fasted, D 1 4 h",103.8
same,Mean DBP,"healthy participants; 100 mg Fasted, D 1 8 h",63 mmHg
same,Mean SBP,"healthy participants; 100 mg Fasted, D 1 8 h",98.0
same,Mean DBP,"healthy participants; 100 mg Fasted, D 2 24 h",69.3 mmHg
same,Mean SBP,"healthy participants; 100 mg Fasted, D 2 24 h",115.2
same,Mean DBP,"healthy participants; 100 mg Fed, D 1 2 h",57.2 mmHg
same,Mean SBP,"healthy participants; 100 mg Fed, D 1 2 h",100.5
same,Mean DBP,"healthy participants; 100 mg Fed, D 1 4 h",58.2 mmHg
same,Mean SBP,"healthy participants; 100 mg Fed, D 1 4 h",104.2
same,Mean DBP,"healthy participants; 100 mg Fed, D 1 8 h",58.8 mmHg
same,Mean SBP,"healthy participants; 100 mg Fed, D 1 8 h",100.3
same,Mean DBP,"healthy participants; 100 mg Fed, D 2 24 h",69.3 mmHg
same,Mean SBP,"healthy participants; 100 mg Fed, D 2 24 h",112.8
same,Maximum of mean (±SD) reduction in DBP from baseline,healthy participants; 100 mg fasted (A7),12.5 ± 7.06 mmHg
same,Maximum of mean (±SD) reduction in SBP from baseline,healthy participants; 100 mg fasted (A7),25.8 ± 9.54 mmHg
same,Time of maximum mean DBP reduction,healthy participants; 100 mg fasted (A7),5 h
same,Time of maximum mean SBP reduction,healthy participants; 100 mg fasted (A7),8 h
same,Maximum of mean (±SD) reduction in DBP from baseline,healthy participants; [5],11.8 ± 8.40 mmHg
same,Maximum of mean (±SD) reduction in SBP from baseline,healthy participants; [5],19.3 ± 17.41 mmHg
same,Time of maximum mean DBP reduction,healthy participants; [5],6 h
same,Time of maximum mean SBP reduction,healthy participants; [5],6 h
same,Maximum of mean (±SD) reduction in DBP from baseline,healthy participants; 100 mg fed (A7),12.7 ± 4.18 mmHg
same,Maximum of mean (±SD) reduction in SBP from baseline,healthy participants; 100 mg fed (A7),18.5 ± 12.94 mmHg
same,Time of maximum mean DBP reduction,healthy participants; 100 mg fed (A7),5 h
same,Time of maximum mean SBP reduction,healthy participants; 100 mg fed (A7),6 h
same,Dose-limiting events,"healthy participants; Cohort A6, 250 mg single dose, 2 sentinel participants dosed",dose-limiting events observed in a sentinel participant
same,Maximum of mean (±SD) reduction in SBP from baseline,healthy participants; SAD 3 mg (A1),5.2 ± 3.43 mmHg
same,Time of maximum mean SBP reduction,healthy participants; SAD 3 mg (A1),2 h
same,Mean DBP,"healthy participants; SAD 3 mg, D 1 2 h",68.3 mmHg
same,Mean SBP,"healthy participants; SAD 3 mg, D 1 2 h",119.5
same,Mean DBP,"healthy participants; SAD 3 mg, D 1 4 h",69.5 mmHg
same,Mean SBP,"healthy participants; SAD 3 mg, D 1 4 h",120.3
same,Mean DBP,"healthy participants; SAD 3 mg, D 1 8 h",68 mmHg
same,Mean SBP,"healthy participants; SAD 3 mg, D 1 8 h",124.5
same,Mean DBP,"healthy participants; SAD 3 mg, D 2 24 h",68.7 mmHg
same,Mean SBP,"healthy participants; SAD 3 mg, D 2 24 h",118.8
same,Maximum of mean (±SD) reduction in DBP from baseline,healthy participants; SAD 10 mg (A2),8.8 ± 9.91 mmHg
same,Maximum of mean (±SD) reduction in SBP from baseline,healthy participants; SAD 10 mg (A2),9.5 ± 16.13 mmHg
same,Time of maximum mean DBP reduction,healthy participants; SAD 10 mg (A2),6 h
same,Time of maximum mean SBP reduction,healthy participants; SAD 10 mg (A2),8 h
same,Mean DBP,"healthy participants; SAD 10 mg, D 1 2 h",67.7 mmHg
same,Mean SBP,"healthy participants; SAD 10 mg, D 1 2 h",112.2
same,Mean DBP,"healthy participants; SAD 10 mg, D 1 4 h",68.7 mmHg
same,Mean SBP,"healthy participants; SAD 10 mg, D 1 4 h",110.2
same,Mean DBP,"healthy participants; SAD 10 mg, D 1 8 h",63 mmHg
same,Mean SBP,"healthy participants; SAD 10 mg, D 1 8 h",109.5
same,Mean DBP,"healthy participants; SAD 10 mg, D 2 24 h",71.7 mmHg
same,Mean SBP,"healthy participants; SAD 10 mg, D 2 24 h",118.5
same,Maximum of mean (±SD) reduction in DBP from baseline,healthy participants; SAD 30 mg (A3),6.8 ± 1.72 mmHg
same,Maximum of mean (±SD) reduction in SBP from baseline,healthy participants; SAD 30 mg (A3),11.7 ± 7.61 mmHg
same,Time of maximum mean DBP reduction,healthy participants; SAD 30 mg (A3),5 h
same,Time of maximum mean SBP reduction,healthy participants; SAD 30 mg (A3),4 h
same,Mean DBP,"healthy participants; SAD 30 mg, D 1 2 h",66.2 mmHg
same,Mean SBP,"healthy participants; SAD 30 mg, D 1 2 h",107.5
same,Mean DBP,"healthy participants; SAD 30 mg, D 1 4 h",65.2 mmHg
same,Mean SBP,"healthy participants; SAD 30 mg, D 1 4 h",106.0
same,Mean DBP,"healthy participants; SAD 30 mg, D 1 8 h",65.2 mmHg
same,Mean SBP,"healthy participants; SAD 30 mg, D 1 8 h",113.8
same,Mean DBP,"healthy participants; SAD 30 mg, D 2 24 h",71 mmHg
same,Mean SBP,"healthy participants; SAD 30 mg, D 2 24 h",120.2
same,Maximum of mean (±SD) reduction in DBP from baseline,healthy participants; SAD 100 mg (A4),9.7 ± 8.64 mmHg
same,Maximum of mean (±SD) reduction in SBP from baseline,healthy participants; SAD 100 mg (A4),15.5 ± 11.59 mmHg
same,Time of maximum mean DBP reduction,healthy participants; SAD 100 mg (A4),5 h
same,Time of maximum mean SBP reduction,healthy participants; SAD 100 mg (A4),2 h
same,Mean DBP,"healthy participants; SAD 100 mg, D 1 2 h",59 mmHg
same,Mean SBP,"healthy participants; SAD 100 mg, D 1 2 h",101.0
same,Mean DBP,"healthy participants; SAD 100 mg, D 1 4 h",58.7 mmHg
same,Mean SBP,"healthy participants; SAD 100 mg, D 1 4 h",101.3
same,Mean DBP,"healthy participants; SAD 100 mg, D 1 8 h",56.3 mmHg
same,Mean SBP,"healthy participants; SAD 100 mg, D 1 8 h",105.0
same,Mean DBP,"healthy participants; SAD 100 mg, D 2 24 h",66 mmHg
same,Mean SBP,"healthy participants; SAD 100 mg, D 2 24 h",114.2
same,Maximum of mean (±SD) reduction in DBP from baseline,healthy participants; SAD 150 mg (A5),12.7 ± 5.61 mmHg
same,Maximum of mean (±SD) reduction in SBP from baseline,healthy participants; SAD 150 mg (A5),16.5 ± 8.41 mmHg
same,Time of maximum mean DBP reduction,healthy participants; SAD 150 mg (A5),6 h
same,Time of maximum mean SBP reduction,healthy participants; SAD 150 mg (A5),6 h
same,Mean DBP,"healthy participants; SAD 150 mg, D 1 2 h",58.2 mmHg
same,Mean SBP,"healthy participants; SAD 150 mg, D 1 2 h",105.0
same,Mean DBP,"healthy participants; SAD 150 mg, D 1 4 h",56 mmHg
same,Mean SBP,"healthy participants; SAD 150 mg, D 1 4 h",101.5
same,Mean DBP,"healthy participants; SAD 150 mg, D 1 8 h",57.8 mmHg
same,Mean SBP,"healthy participants; SAD 150 mg, D 1 8 h",107.2
same,Mean DBP,"healthy participants; SAD 150 mg, D 2 24 h",66.2 mmHg
same,Mean SBP,"healthy participants; SAD 150 mg, D 2 24 h",114.7
same,"Effect on SBP, DBP and heart rate",healthy participants; SAD cohorts,"decreased SBP and DBP dose dependently, reversibly, and mostly asymptomatically with minimal effect on heart rate"
same,Safety and tolerability,healthy participants; single and multiple dose oral administration to healthy participants,generally safe and well tolerated
same,Kb,LPA1,6.9 nM
